Results on 3 compounds are retold here after ChEMBL document CHEMBL1158594, “Turning off transcription of the bcl-2 gene by stabilizing the bcl-2 promoter quadruplex with quindoline derivatives” (J Med Chem, 2010).

Calls of active or inactive are those of the source. The calls are words filed in the database; no cut-off is given here. Some results are limits rather than exact numbers.

In assay [1] the test system is Nucleic Acid. Kind of assay: Binding affinity to human single-strand oligonucleotide MutPu39 transfected in human HL60 cells assessed as Bcl-2 transcriptional activation at 0.4 uM after 48 hrs by luciferase reporter gene assay relative to untreated Pu39-construct control. The settings on record: HL-60. The format is cell-based.
The subject of assay [2] is Nucleic Acid. Kind of assay: Binding affinity to human single-strand oligonucleotide MutPu39 transfected in human HL60 cells assessed as Bcl-2 transcriptional activation at 0.4 uM after 48 hrs by luciferase reporter gene assay relative to untreated MutPu39-construct control. The format is cell-based. As to conditions: HL-60. A general note: Reporter assays use an easily measured gene product as a stand-in for the process of interest.

For assay [3], the system named is Nucleic Acid. Kind of assay: Binding affinity to human single-strand oligonucleotide Pu39 transfected in human HL60 cells assessed as reduction of Bcl-2 transcriptional activation at 0.4 uM after 48 hrs by luciferase reporter gene assay. The format is cell-based. As to conditions: HL-60.
The test system of assay [4] is Nucleic Acid. Kind of assay: Binding affinity to human single-strand oligonucleotide MutPu39 transfected in human HL60 cells assessed as reduction of Bcl-2 transcriptional activation at 0.4 uM after 48 hrs by luciferase reporter gene assay. The settings on record: HL-60. The format is cell-based.
Assay [5] deals with HL-60. Kind of assay: Downregulation of Bcl-2 mRNA expression in human HL60 cells by RT-PCR analysis. The format is functional, cell-based.
Assay [6] concerns HL-60. Kind of assay: Downregulation of Bcl-2 protein expression in human HL60 cells at 0.02 to 0.2 uM after 4 days by Western blot analysis. The format is functional, cell-based.
The subject of assay [7] is HL-60. Kind of assay: Downregulation of Bcl-2 mRNA expression in human HL60 cells at 0.2 uM by RT-PCR analysis. The format is functional.
In assay [8] the test system is HL-60. Briefly: Antiproliferative activity against human HL60 cells at 0.02 to 0.2 uM after 4 days by trypan blue exclusion assay. The format is functional, cell-based.
For assay [9], the system named is HL-60. Kind of assay: Antiproliferative activity against human HL60 cells assessed as viable cells at 0.2 uM after 4 days by trypan blue exclusion assay. The format is functional. The settings on record: HL-60, 96 h, read-out: Activity.
In assay [10] the test system is HL-60. Kind of assay: Induction of apoptosis in human HL60 cells assessed as PARP cleavage at 0.2 uM after 4 days by Western blot analysis. The format is functional, cell-based. Background: In western blotting, separated proteins are transferred to a membrane and probed.
The test system of assay [11] is HL-60. Briefly: Induction of apoptosis in human HL60 cells assessed as cleavage of 35 kDa procaspase-3 at 0.02 to 0.2 uM after 4 days by Western blot analysis. The format is functional, cell-based.
Assay [12] concerns HL-60. Briefly: Induction of apoptosis in human HL60 cells assessed as cleavage of 17 kDa procaspase-3 at 0.02 to 0.2 uM after 4 days by Western blot analysis. The format is functional, cell-based.
For assay [13], the system named is HL-60. Kind of assay: Cell cycle arrest in human HL60 cells assessed as accumulation at sub-G1 phase at 0.2 uM after 4 days by propidium iodide staining-based flow cytometry. The format is functional. In general terms: Flow cytometry measures light scatter and fluorescence of single cells or particles in a stream.
In assay [14] the test system is HL-60. Kind of assay: Cell cycle arrest in human HL60 cells assessed as accumulation at sub-G1 phase at 0.05 uM after 4 days by propidium iodide staining-based flow cytometry. The format is functional.
The test system of assay [15] is HL-60. Kind of assay: Cell cycle arrest in human HL60 cells assessed as accumulation at sub-G1 phase at 0.1 uM after 4 days by propidium iodide staining-based flow cytometry. The format is functional.
In assay [16] the target is Nucleic Acid. Kind of assay: Binding affinity to single-strand oligonucleotide Pu39 assessed as formation of G-quadruplex complex after 3 mins by PCR stop assay. The format is nucleic-acid assay.
The target in assay [17] is Nucleic Acid. Kind of assay: Binding affinity to single-strand oligonucleotide MutPu39 assessed as formation of G-quadruplex complex after 3 mins by PCR stop assay. The format is nucleic-acid assay.
Assay [18] addresses Nucleic Acid. Kind of assay: Binding affinity to Bcl-2 promoter quadruplex DNA by surface plasmon resonance assay. The format is nucleic-acid assay.
The target of assay [19] is Nucleic Acid. Kind of assay: Binding affinity to Bcl-2 promoter duplex DNA by surface plasmon resonance assay. The format is nucleic-acid assay.
The test system of assay [20] is Nucleic Acid. Kind of assay: Stabilization of single-strand oligonucleotide MidG4 assessed as melting temperature by FRET assay. The format is nucleic-acid assay.
Assay [21] deals with Nucleic Acid. Briefly: Binding affinity to human single-strand oligonucleotide Pu39 transfected in human HL60 cells assessed as Bcl-2 transcriptional activation at 0.4 uM after 48 hrs by luciferase reporter gene assay relative to untreated Pu39-construct control. The format is cell-based. As to conditions: HL-60.
The subject of assay [22] is Nucleic Acid. Briefly: Selectivity ratio of Kd for Bcl-2 promoter duplex DNA to Kd for Bcl-2 promoter quadruplex DNA. The format is nucleic-acid assay.
Assay [23] has as its system HL-60. Kind of assay: Downregulation of Bcl-2 protein expression in human HL60 cells at 0.1 to 1 uM after 4 days by Western blot analysis. The format is functional, cell-based.
Assay [24] has as its system HL-60. Briefly: Downregulation of Bcl-2 mRNA expression in human HL60 cells at 0.8 uM by RT-PCR analysis. The format is functional.
The test system of assay [25] is HL-60. Briefly: Antiproliferative activity against human HL60 cells at 0.1 to 1 uM after 4 days by trypan blue exclusion assay. The format is functional, cell-based.
Assay [26] deals with HL-60. Kind of assay: Antiproliferative activity against human HL60 cells assessed as viable cells at 1 uM after 4 days by trypan blue exclusion assay. The settings on record: HL-60, 96 h, read-out: Activity. The format is functional.
Assay [27] deals with HL-60. Briefly: Induction of apoptosis in human HL60 cells assessed as PARP cleavage at 1 uM after 4 days by Western blot analysis. The format is functional, cell-based.
The subject of assay [28] is HL-60. Briefly: Induction of apoptosis in human HL60 cells assessed as cleavage of 35 kDa procaspase-3 at 0.1 to 1 uM after 4 days by Western blot analysis. The format is functional, cell-based.
Assay [29] concerns HL-60. Kind of assay: Induction of apoptosis in human HL60 cells assessed as cleavage of 17 kDa procaspase-3 at 0.1 to 1 uM after 4 days by Western blot analysis. The format is functional, cell-based.
Assay [30] concerns HL-60. Kind of assay: Cell cycle arrest in human HL60 cells assessed as accumulation at sub-G1 phase at 0.5 uM after 4 days by propidium iodide staining-based flow cytometry. The format is functional.
In assay [31] the test system is HL-60. Kind of assay: Cell cycle arrest in human HL60 cells assessed as accumulation at sub-G1 phase at 1 uM after 4 days by propidium iodide staining-based flow cytometry. The format is functional.

As to `CN(C)CCCNc1c2ccccc2[n+](C)c2c1[nH]c1ccc(F)cc12.[I-]`, the Activity in the assay on Nucleic Acid [1] was 132%; in the assay with Nucleic Acid [2], 74.6%; with HL-60 [5], “Dose-dependent effect”; in the assay on HL-60 [7] it was 50%; in the assay on HL-60 [13] it was 3.5%; in the assay on HL-60 [14], 5%. Also, the Activity in the assay with HL-60 [15] was determined as 23.8%; in the assay with Nucleic Acid [21], 51.4%. Also, the figures for the inhibition in the assay on Nucleic Acid [3] and in the assay with Nucleic Acid [4] were 50% and 25%, respectively. For the same compound, the result with HL-60 [6], with HL-60 [8], with HL-60 [10] and in the assay on HL-60 [11] was Active. Moreover, the viability at 0.2 µM in the assay with HL-60 [9] was less than 25%. In addition, the outcome in the assay on HL-60 [12] was inactive. For the same compound, the results for the IC50 on Nucleic Acid [16] and on Nucleic Acid [17] were 1110 nM and 19700 nM, respectively. Besides, the figures for the dissociation constant (Kd) at Nucleic Acid [18] and at Nucleic Acid [19] were 31.8 nM and 269 nM, respectively. In the assay on Nucleic Acid [20], the Tm stood at 76.9 °C.
As to `OCCNc1c2ccccc2nc2c1[nH]c1ccccc12`, the Activity in the assay with Nucleic Acid [1] worked out at 163%; with Nucleic Acid [2], 92.6%; in the assay with Nucleic Acid [21] it was 84.4%. For the same compound, the half-inhibitory concentration (IC50) on Nucleic Acid [16] and on Nucleic Acid [17] was greater than 100000 nM throughout. Moreover, the dissociation constant Kd at Nucleic Acid [18] stood at 1500 nM; on Nucleic Acid [19], 3380 nM. Besides, the Selectivity ratio in the assay on Nucleic Acid [22] is 2.3. Moreover, the Tm in the assay on Nucleic Acid [20] amounted to 51.5 °C.
Consider `CN(C)CCCNc1c2ccccc2nc2c1[nH]c1ccc(F)cc12`, for which the Activity with Nucleic Acid [1] is 156%; in the assay with Nucleic Acid [2], 88.3%; in the assay with HL-60 [5] it was “Dose-dependent effect”; in the assay on HL-60 [24], 50%; in the assay with HL-60 [13], 3%; with HL-60 [30] it was 6.1%. Also, the Activity in the assay with HL-60 [31] was 22.3%; with Nucleic Acid [21], 70.5%. In addition, the inhibition in the assay with Nucleic Acid [3] stood at 30%; with Nucleic Acid [4], 12%. The outcome with HL-60 [23], with HL-60 [25], in the assay on HL-60 [27] and in the assay with HL-60 [28] was Active. In addition, in the assay on HL-60 [26], the viability at 1 µM was less than 25%. Moreover, the result in the assay with HL-60 [29] was inactive. Also, the 50% inhibitory concentration (IC50) was 74400 nM on Nucleic Acid [16] and greater than 100000 nM on Nucleic Acid [17]. Further, the Kd at Nucleic Acid [18] was 167 nM; on Nucleic Acid [19] it was 482 nM. Also, the Selectivity ratio in the assay with Nucleic Acid [22] amounted to 2.9. Also, the Tm with Nucleic Acid [20] is 65.1 °C.

Broadly, the inhibition is the relative decrease from the control value, in per cent. As usually defined, the IC50 is the concentration that inhibits the measured activity by half. What is called Kd is the constant that tells how readily two partners part at equilibrium. A lower Kd goes with tighter binding.
